Assay results reported in ChEMBL document CHEMBL5303573, “Mapping human microbiome drug metabolism by gut bacteria and their genes” (Nature, 2019).

Tests used:
[1] = The drug is tested on Collinsella intestinalis strain: DSM13280 for biotransformation. The drug concentrations were measured before and after a 12-h incubation by liquid-chromatography-coupled mass spectrometry (LC–MS); details: 2 µM
[2] = bacteroides fragilis, 12 h, 2 µM
Description: The drug is tested on Bacteroides fragilis strain: DS-208 for biotransformation. The drug concentrations were measured before and after a 12-h incubation by liquid-chromatography-coupled mass spectrometry (LC–MS)

[3] = The drug is tested on Anaerococcus hydrogenalis strain: DSM7454 for biotransformation. The drug concentrations were measured before and after a 12-h incubation by liquid-chromatography-coupled mass spectrometry (LC–MS); details: 2 µM
[4] = anaerostipes sp., 12 h, 2 µM
Description: The drug is tested on Anaerostipes sp. strain: fecal isolate for biotransformation. The drug concentrations were measured before and after a 12-h incubation by liquid-chromatography-coupled mass spectrometry (LC–MS)

[5] = bacteroides fragilis, 12 h, 2 µM; remark: listed apart in the source
Description: The drug is tested on Bacteroides fragilis strain: 3397 (T10) for biotransformation. The drug concentrations were measured before and after a 12-h incubation by liquid-chromatography-coupled mass spectrometry (LC–MS)

[6] = bifidobacterium adolescentis, 12 h, 2 µM
Description: The drug is tested on Bifidobacterium adolescentis strain: ATCC 15703 for biotransformation. The drug concentrations were measured before and after a 12-h incubation by liquid-chromatography-coupled mass spectrometry (LC–MS)

[7] = The drug is tested on Bacteroides dorei strain: DSM17855 for biotransformation. The drug concentrations were measured before and after a 12-h incubation by liquid-chromatography-coupled mass spectrometry (LC–MS); details: phocaeicola dorei, 2 µM
[8] = bacteroides fragilis, 12 h, 2 µM; remark: listed apart in the source
Description: The drug is tested on Bacteroides fragilis strain: NCTC 9343 for biotransformation. The drug concentrations were measured before and after a 12-h incubation by liquid-chromatography-coupled mass spectrometry (LC–MS)

[9] = The drug is tested on Providencia rettgeri strain: DSM1131 for biotransformation. The drug concentrations were measured before and after a 12-h incubation by liquid-chromatography-coupled mass spectrometry (LC–MS); assay type: ADME; set-up: dose 2 uM, timepoint 0 vs 12 hours; details: 2 µM
[10] = The drug is tested on Bacteroides fragilis strain: ATCC43859 for biotransformation. The drug concentrations were measured before and after a 12-h incubation by liquid-chromatography-coupled mass spectrometry (LC–MS); details: 2 µM
[11] = The drug is tested on Eubacterium hallii strain: DSM3353 for biotransformation. The drug concentrations were measured before and after a 12-h incubation by liquid-chromatography-coupled mass spectrometry (LC–MS); details: anaerobutyricum hallii, 2 µM
[12] = The drug is tested on Subdoligranulum variabile strain: DSM15176 for biotransformation. The drug concentrations were measured before and after a 12-h incubation by liquid-chromatography-coupled mass spectrometry (LC–MS); details: 2 µM
[13] = The drug is tested on Blautia hansenii strain: DSM20583 for biotransformation. The drug concentrations were measured before and after a 12-h incubation by liquid-chromatography-coupled mass spectrometry (LC–MS); details: 2 µM
[14] = bacteroides stercoris, 12 h, 2 µM
Description: The drug is tested on Bacteroides stercoris strain: ATCC43183 for biotransformation. The drug concentrations were measured before and after a 12-h incubation by liquid-chromatography-coupled mass spectrometry (LC–MS)

[15] = The drug is tested on Coprococcus comes strain: ATCC27758 for biotransformation. The drug concentrations were measured before and after a 12-h incubation by liquid-chromatography-coupled mass spectrometry (LC–MS); assay type: ADME; set-up: dose 2 uM, timepoint 0 vs 12 hours; details: 2 µM
[16] = The drug is tested on Parabacteroides merdae strain: ATCC43184 for biotransformation. The drug concentrations were measured before and after a 12-h incubation by liquid-chromatography-coupled mass spectrometry (LC–MS); details: 2 µM
[17] = The drug is tested on Bacteroides ovatus strain: ATCC8483 for biotransformation. The drug concentrations were measured before and after a 12-h incubation by liquid-chromatography-coupled mass spectrometry (LC–MS); details: 2 µM
[18] = The drug is tested on Bacteroides coprophilus strain: DSM18228 for biotransformation. The drug concentrations were measured before and after a 12-h incubation by liquid-chromatography-coupled mass spectrometry (LC–MS); details: 2 µM
[19] = The drug is tested on Bacteroides vulgatus strain: ATCC8482 for biotransformation. The drug concentrations were measured before and after a 12-h incubation by liquid-chromatography-coupled mass spectrometry (LC–MS); details: phocaeicola vulgatus, 2 µM
[20] = The drug is tested on Providencia stuartii strain: ATCC25827 for biotransformation. The drug concentrations were measured before and after a 12-h incubation by liquid-chromatography-coupled mass spectrometry (LC–MS); details: 2 µM

Q: What does the source list for `O=c1[nH]c2ccccc2n1CCCN1CCC(n2c(=O)[nH]c3cc(Cl)ccc32)CC1` [DOMPERIDONE]?
A: Bacterial Biotransformation [1]: Compound NOT metabolized; Bacterial Biotransformation [2]: Compound NOT metabolized; Bacterial Biotransformation [3]: Compound NOT metabolized; Bacterial Biotransformation [4]: Compound NOT metabolized; Bacterial Biotransformation [5]: Compound NOT metabolized; Bacterial Biotransformation [6]: Compound NOT metabolized; Bacterial Biotransformation [7]: Compound NOT metabolized; Bacterial Biotransformation [8]: Compound NOT metabolized; Bacterial Biotransformation [9]: Compound NOT metabolized; Bacterial Biotransformation [10]: Compound NOT metabolized; Bacterial Biotransformation [11]: Compound NOT metabolized; Bacterial Biotransformation [12]: Compound NOT metabolized; Bacterial Biotransformation [13]: Compound NOT metabolized; Bacterial Biotransformation [14]: Compound NOT metabolized; Bacterial Biotransformation [15]: Compound NOT metabolized; Bacterial Biotransformation [16]: Compound NOT metabolized; Bacterial Biotransformation [17]: Compound NOT metabolized; Bacterial Biotransformation [18]: Compound NOT metabolized; Bacterial Biotransformation [19]: Compound NOT metabolized

Q: With `COc1cc2nc(N3CCN(C(=O)C4COc5ccccc5O4)CC3)nc(N)c2cc1OC.CS(=O)(=O)O` (stereo not drawn) [DOXAZOSIN MESYLATE] as the compound, how does the “Bacterial Biotransformation” value [1] read?
A: Compound NOT metabolized

Q: And the “Bacterial Biotransformation” value [2]?
A: Compound NOT metabolized

Q: And the “Bacterial Biotransformation” value [3]?
A: Compound NOT metabolized

Q: And the “Bacterial Biotransformation” value [5]?
A: Compound NOT metabolized

Q: What about the “Bacterial Biotransformation” value [20] of the same compound?
A: Compound NOT metabolized

Q: What about the “Bacterial Biotransformation” value [6] of the same compound?
A: Compound NOT metabolized

Q: And the “Bacterial Biotransformation” value [7]?
A: Compound metabolized

Q: And the “Bacterial Biotransformation” value [8]?
A: Compound NOT metabolized

Q: What about the “Bacterial Biotransformation” value [9] of the same compound?
A: Compound NOT metabolized

Q: What about the “Bacterial Biotransformation” value [10] of the same compound?
A: Compound NOT metabolized

Q: And the “Bacterial Biotransformation” value [11]?
A: Compound NOT metabolized

Q: What about the “Bacterial Biotransformation” value [12] of the same compound?
A: Compound NOT metabolized

Q: What about the “Bacterial Biotransformation” value [13] of the same compound?
A: Compound metabolized

Q: What about the “Bacterial Biotransformation” value [14] of the same compound?
A: Compound NOT metabolized

Q: And the “Bacterial Biotransformation” value [15]?
A: Compound NOT metabolized

Q: And the “Bacterial Biotransformation” value [16]?
A: Compound NOT metabolized

Q: And the “Bacterial Biotransformation” value [17]?
A: Compound NOT metabolized

Q: What about the “Bacterial Biotransformation” value [18] of the same compound?
A: Compound NOT metabolized

Q: Which results are given for `OCCN1CCN(CCCN2c3ccccc3Sc3ccc(C(F)(F)F)cc32)CC1` [FLUPHENAZINE]?
A: Bacterial Biotransformation [1]: Compound NOT metabolized; Bacterial Biotransformation [2]: Compound metabolized; Bacterial Biotransformation [3]: Compound NOT metabolized; Bacterial Biotransformation [4]: Compound metabolized; Bacterial Biotransformation [5]: Compound metabolized; Bacterial Biotransformation [6]: Compound NOT metabolized; Bacterial Biotransformation [7]: Compound metabolized; Bacterial Biotransformation [8]: Compound metabolized; Bacterial Biotransformation [9]: Compound NOT metabolized; Bacterial Biotransformation [10]: Compound NOT metabolized; Bacterial Biotransformation [11]: Compound metabolized; Bacterial Biotransformation [12]: Compound NOT metabolized; Bacterial Biotransformation [13]: Compound NOT metabolized; Bacterial Biotransformation [14]: Compound metabolized; Bacterial Biotransformation [15]: Compound metabolized; Bacterial Biotransformation [16]: Compound NOT metabolized; Bacterial Biotransformation [17]: Compound NOT metabolized; Bacterial Biotransformation [18]: Compound NOT metabolized; Bacterial Biotransformation [19]: Compound metabolized

Q: With `CN1CCC(=C2c3ccccc3CC(=O)c3sccc32)CC1.O=C(O)/C=C/C(=O)O` [KETOTIFEN FUMARATE] as the compound, how does the “Bacterial Biotransformation” value [1] read?
A: Compound NOT metabolized

Q: And the “Bacterial Biotransformation” value [2]?
A: Compound NOT metabolized

Q: What about the “Bacterial Biotransformation” value [3] of the same compound?
A: Compound NOT metabolized

Q: What about the “Bacterial Biotransformation” value [4] of the same compound?
A: Compound NOT metabolized

Q: What about the “Bacterial Biotransformation” value [5] of the same compound?
A: Compound NOT metabolized

Q: What about the “Bacterial Biotransformation” value [20] of the same compound?
A: Compound NOT metabolized

Q: And the “Bacterial Biotransformation” value [6]?
A: Compound NOT metabolized

Q: What about the “Bacterial Biotransformation” value [7] of the same compound?
A: Compound NOT metabolized

Q: And the “Bacterial Biotransformation” value [8]?
A: Compound NOT metabolized

Q: And the “Bacterial Biotransformation” value [9]?
A: Compound NOT metabolized

Q: And the “Bacterial Biotransformation” value [10]?
A: Compound NOT metabolized

Q: What about the “Bacterial Biotransformation” value [11] of the same compound?
A: Compound NOT metabolized

Q: And the “Bacterial Biotransformation” value [12]?
A: Compound NOT metabolized

Q: And the “Bacterial Biotransformation” value [13]?
A: Compound NOT metabolized

Q: What about the “Bacterial Biotransformation” value [14] of the same compound?
A: Compound NOT metabolized

Q: What about the “Bacterial Biotransformation” value [15] of the same compound?
A: Compound NOT metabolized

Q: What about the “Bacterial Biotransformation” value [16] of the same compound?
A: Compound NOT metabolized

Q: And the “Bacterial Biotransformation” value [17]?
A: Compound NOT metabolized

Q: And the “Bacterial Biotransformation” value [18]?
A: Compound NOT metabolized

Q: Which results are given for `CN1CCN(C2=Nc3ccccc3Oc3ccc(Cl)cc32)CC1.O=C(O)CCC(=O)O` [LOXAPINE SUCCINATE]?
A: Bacterial Biotransformation [1]: Compound NOT metabolized; Bacterial Biotransformation [2]: Compound NOT metabolized; Bacterial Biotransformation [3]: Compound NOT metabolized; Bacterial Biotransformation [4]: Compound NOT metabolized; Bacterial Biotransformation [5]: Compound NOT metabolized; Bacterial Biotransformation [6]: Compound NOT metabolized; Bacterial Biotransformation [7]: Compound NOT metabolized; Bacterial Biotransformation [8]: Compound NOT metabolized; Bacterial Biotransformation [9]: Compound NOT metabolized; Bacterial Biotransformation [10]: Compound NOT metabolized; Bacterial Biotransformation [11]: Compound NOT metabolized; Bacterial Biotransformation [12]: Compound NOT metabolized; Bacterial Biotransformation [13]: Compound NOT metabolized; Bacterial Biotransformation [14]: Compound NOT metabolized; Bacterial Biotransformation [15]: Compound NOT metabolized; Bacterial Biotransformation [16]: Compound NOT metabolized; Bacterial Biotransformation [17]: Compound NOT metabolized; Bacterial Biotransformation [18]: Compound NOT metabolized; Bacterial Biotransformation [19]: Compound NOT metabolized

Q: With `C#C[C@]1(OC(C)=O)CC[C@H]2[C@@H]3CCC4=CC(=O)CC[C@@H]4[C@H]3CC[C@@]21C` [NORETHINDRONE ACETATE] as the compound, how does the “Bacterial Biotransformation” value [1] read?
A: Compound metabolized

Q: What about the “Bacterial Biotransformation” value [2] of the same compound?
A: Compound metabolized

Q: What about the “Bacterial Biotransformation” value [3] of the same compound?
A: Compound NOT metabolized

Q: What about the “Bacterial Biotransformation” value [4] of the same compound?
A: Compound metabolized

Q: And the “Bacterial Biotransformation” value [5]?
A: Compound metabolized

Q: What about the “Bacterial Biotransformation” value [6] of the same compound?
A: Compound NOT metabolized

Q: And the “Bacterial Biotransformation” value [7]?
A: Compound metabolized

Q: What about the “Bacterial Biotransformation” value [8] of the same compound?
A: Compound metabolized

Q: What about the “Bacterial Biotransformation” value [9] of the same compound?
A: Compound NOT metabolized

Q: What about the “Bacterial Biotransformation” value [10] of the same compound?
A: Compound metabolized

Q: And the “Bacterial Biotransformation” value [11]?
A: Compound metabolized

Q: And the “Bacterial Biotransformation” value [12]?
A: Compound NOT metabolized

Q: What about the “Bacterial Biotransformation” value [13] of the same compound?
A: Compound metabolized

Q: What about the “Bacterial Biotransformation” value [14] of the same compound?
A: Compound metabolized

Q: And the “Bacterial Biotransformation” value [15]?
A: Compound NOT metabolized

Q: And the “Bacterial Biotransformation” value [16]?
A: Compound metabolized

Q: What about the “Bacterial Biotransformation” value [17] of the same compound?
A: Compound metabolized

Q: What about the “Bacterial Biotransformation” value [18] of the same compound?
A: Compound metabolized

Q: And the “Bacterial Biotransformation” value [19]?
A: Compound metabolized
